“And” between values parts separate entries of the source, which are not always exact repeats. Equal entries are not always repeated. Inconclusive results and toxic doses are left out.
Test system: BDF1 mice, B16 melanoma ip, median survival T/C
Test: NCI In Vivo Anticancer Drug Screen. Data for tumor model B16 Melanoma (intraperitoneal) in B6D2F1 (BDF1) mice
Conditions: endpoint: median survival time, higher = longer survival
Outline: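 Survival or tumor size is measured after treatment of tumor-bearing mice and normalised to the vehicle-treated control group.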

[1] = dose: 12.5 mg/kg/injection, schedule: Q01DX009 (ip), vehicle: Klucel (hydroxypropylcellulose) (HPC)
[2] = dose: 25.0 mg/kg/injection, schedule: Q01DX009 (ip), vehicle: Klucel (hydroxypropylcellulose) (HPC)
[3] = dose: 50.0 mg/kg/injection, schedule: Q01DX009 (ip), vehicle: Klucel (hydroxypropylcellulose) (HPC)
[4] = dose: 100.0 mg/kg/injection, schedule: Q01DX009 (ip), vehicle: Klucel (hydroxypropylcellulose) (HPC)
[5] = dose: 50.0 mg/kg/injection, schedule: Q01DX009 (ip), vehicle: saline with Tween-80
[6] = dose: 100.0 mg/kg/injection, schedule: Q01DX009 (ip), vehicle: saline with Tween-80
[7] = dose: 200.0 mg/kg/injection, schedule: Q04DX003 (ip), vehicle: Klucel (hydroxypropylcellulose) (HPC)
[8] = dose: 400.0 mg/kg/injection, schedule: Q04DX003 (ip), vehicle: Klucel (hydroxypropylcellulose) (HPC)
[9] = dose: 12.5 mg/kg/injection, schedule: Q01DX009 (ip), vehicle: saline with Tween-80
[10] = dose: 25.0 mg/kg/injection, schedule: Q01DX009 (ip), vehicle: saline with Tween-80
[11] = dose: 50.0 mg/kg/injection, schedule: Q01DX009 (ip), vehicle: saline
[12] = dose: 100.0 mg/kg/injection, schedule: Q01DX009 (ip), vehicle: saline
[13] = dose: 200.0 mg/kg/injection, schedule: Q01DX009 (ip), vehicle: saline
[14] = dose: 200.0 mg/kg/injection, schedule: Q01DX009 (ip), vehicle: Klucel (hydroxypropylcellulose) (HPC)

O=c1[nH]c2ccccc2n1C1CCN(CCCC(c2ccc(F)cc2)c2ccc(F)cc2)CC1
T/C (dose: 1.56 mg/kg/injection, schedule: Q01DX009 (ip), vehicle: Klucel (hydroxypropylcellulose) (HPC)): 102 % of control
T/C (dose: 3.12 mg/kg/injection, schedule: Q01DX009 (ip), vehicle: Klucel (hydroxypropylcellulose) (HPC)): 100 % of control
T/C (dose: 6.25 mg/kg/injection, schedule: Q01DX009 (ip), vehicle: Klucel (hydroxypropylcellulose) (HPC)): 100 % of control
T/C [1]: 94 % of control
T/C [2]: 105 % of control
T/C [3]: 87 % of control
T/C [4]: 87 % of control

C#CCOCC1CO1 (stereo unspecified)
T/C [5]: 97 % of control
T/C [6]: 91 % of control

Cc1ccc2c(ccc3c[n+]4ccccc4c(C)c32)c1
T/C (dose: 1.25 mg/kg/injection, schedule: Q01DX009 (ip), vehicle: saline with Tween-80): 95 % of control
T/C (dose: 2.5 mg/kg/injection, schedule: Q01DX009 (ip), vehicle: saline with Tween-80): 95 % of control and 102 % of control
T/C (dose: 5.0 mg/kg/injection, schedule: Q01DX009 (ip), vehicle: saline with Tween-80): 90 % of control and 102 % of control

O=[N+]([O-])O.O=[N+]([O-])O.[NH-]C1CCCCC1[NH-].[Pt+2] (stereo unspecified)
T/C (dose: 0.25 mg/kg/injection, schedule: Q01DX009 (ip), vehicle: dextrose): 110 % of control
T/C (dose: 0.5 mg/kg/injection, schedule: Q01DX009 (ip), vehicle: dextrose): 120 % of control
T/C (dose: 1.0 mg/kg/injection, schedule: Q01DX009 (ip), vehicle: dextrose): 160 % of control
T/C (dose: 2.0 mg/kg/injection, schedule: Q01DX009 (ip), vehicle: dextrose): 183 % of control

CC(C)NC1C2CCC(CC2)C1(O)c1ccc(Cl)c(Cl)c1 (stereo unspecified)
T/C (dose: 0.78 mg/kg/injection, schedule: Q01DX009 (ip), vehicle: saline): 108 % of control
T/C (dose: 1.56 mg/kg/injection, schedule: Q01DX009 (ip), vehicle: saline): 107 % of control
T/C (dose: 3.12 mg/kg/injection, schedule: Q01DX009 (ip), vehicle: saline): 107 % of control
T/C (dose: 6.25 mg/kg/injection, schedule: Q01DX009 (ip), vehicle: saline): 104 % of control
T/C (dose: 12.5 mg/kg/injection, schedule: Q01DX009 (ip), vehicle: saline): 102 % of control

O=C(Nc1ccccc1Cl)Oc1ccc(-c2ccccc2)cc1Br
T/C (dose: 100.0 mg/kg/injection, schedule: Q04DX003 (ip), vehicle: Klucel (hydroxypropylcellulose) (HPC)): 100 % of control
T/C [7]: 103 % of control
T/C [8]: 93 % of control

CCc1ccc(NC(=O)C(c2ccccc2)c2ccccc2)cc1
T/C [9]: 89 % of control
T/C [10]: 86 % of control

CC(C)N(CCCO)C(C)C
T/C [5]: 101 % of control
T/C [6]: 97 % of control

CC(C)(CO)C(O)C(=O)NNCc1ccccc1 (stereo unspecified)
T/C (dose: 25.0 mg/kg/injection, schedule: Q04DX003 (ip), vehicle: Klucel (hydroxypropylcellulose) (HPC)): 102 % of control
T/C (dose: 25.0 mg/kg/injection, schedule: Q04DX003 (ip), vehicle: saline): 95 % of control
T/C (dose: 50.0 mg/kg/injection, schedule: Q04DX003 (ip), vehicle: Klucel (hydroxypropylcellulose) (HPC)): 90 % of control
T/C (dose: 50.0 mg/kg/injection, schedule: Q04DX003 (ip), vehicle: saline): 99 % of control
T/C (dose: 100.0 mg/kg/injection, schedule: Q04DX003 (ip), vehicle: saline): 100 % of control
T/C [7]: 92 % of control
T/C (dose: 200.0 mg/kg/injection, schedule: Q04DX003 (ip), vehicle: saline): 100 % of control
T/C [8]: 95 % of control
T/C (dose: 400.0 mg/kg/injection, schedule: Q04DX003 (ip), vehicle: saline): 91 % of control

CC[N+]1(CC)CC[N+]2(CC1)CC[N+]1(CC[N+](CC)(CC)CC1)CC2
T/C [11]: 94 % of control
T/C [12]: 100 % of control
T/C [13]: 94 % of control

CC(=O)CC(C)=O.CC(=O)CC(C)=O.CC(=O)CC(C)=O.[Cr]
T/C [3]: 96 % of control
T/C [4]: 97 % of control
T/C [14]: 90 % of control

CCCCCCCC/C=C\CCCCCCCC(=O)N(C)CC(=O)O
T/C [9]: 118 % of control
T/C [10]: 105 % of control
T/C [5]: 104 % of control

CCC(C)C1NC(=O)C(NC(=O)c2c3nc4c(C(=O)NC5C(=O)NC(C(C)CC)C(=O)N6CCCC6C(=O)N(C)CC(=O)N(C)C(C(C)C)C(=O)OC5C)ccc(C)c4oc-3c(C)c(=O)c2Cl)C(C)OC(=O)C(C(C)C)N(C)C(=O)CN(C)C(=O)C2CCCN2C1=O (stereo unspecified)
T/C (dose: 1.25 mg/kg/injection, schedule: Q01DX009 (ip), vehicle: Klucel (hydroxypropylcellulose) (HPC)): 117 % of control
T/C (dose: 10.0 mg/kg/injection, schedule: Q01DX009 (ip), vehicle: Klucel (hydroxypropylcellulose) (HPC)): 164 % of control

CC(=O)[O][Pb]([CH2]C(C)C)([CH2]C(C)C)[CH2]C(C)C
T/C (dose: 0.09 mg/kg/injection, schedule: Q01DX009 (ip), vehicle: Klucel (hydroxypropylcellulose) (HPC)): 94 % of control
T/C (dose: 0.19 mg/kg/injection, schedule: Q01DX009 (ip), vehicle: Klucel (hydroxypropylcellulose) (HPC)): 98 % of control
T/C (dose: 0.38 mg/kg/injection, schedule: Q01DX009 (ip), vehicle: Klucel (hydroxypropylcellulose) (HPC)): 93 % of control
T/C (dose: 0.75 mg/kg/injection, schedule: Q01DX009 (ip), vehicle: Klucel (hydroxypropylcellulose) (HPC)): 88 % of control and 98 % of control

O=C(NC(Cc1ccccc1)C(=O)CCl)OCc1ccccc1 (stereo unspecified)
T/C [1]: 100 % of control
T/C [2]: 97 % of control

CCCNC(C)(C)C(SSS)c1cccs1 (stereo unspecified)
T/C (dose: 4.68 mg/kg/injection, schedule: Q04DX003 (ip), vehicle: saline): 97 % of control
T/C (dose: 6.25 mg/kg/injection, schedule: Q01DX009 (ip), vehicle: alcohol): 111 % of control
T/C (dose: 9.37 mg/kg/injection, schedule: Q04DX003 (ip), vehicle: saline): 106 % of control
T/C (dose: 12.5 mg/kg/injection, schedule: Q01DX009 (ip), vehicle: alcohol): 100 % of control
T/C (dose: 18.75 mg/kg/injection, schedule: Q04DX003 (ip), vehicle: saline): 107 % of control
T/C (dose: 25.0 mg/kg/injection, schedule: Q01DX009 (ip), vehicle: alcohol): 95 % of control
T/C (dose: 50.0 mg/kg/injection, schedule: Q01DX009 (ip), vehicle: alcohol): 91 % of control

O=NN(CCF)C(=O)NC1CCS(=O)(=O)CC1
T/C (dose: 3.75 mg/kg/injection, schedule: Q01DX001 (ip), vehicle: saline): 173 % of control
T/C (dose: 7.5 mg/kg/injection, schedule: Q01DX001 (ip), vehicle: saline): 241 % of control
T/C (dose: 15.0 mg/kg/injection, schedule: Q01DX001 (ip), vehicle: saline): 260 % of control
T/C (dose: 30.0 mg/kg/injection, schedule: Q01DX001 (ip), vehicle: saline): 256 % of control
T/C (dose: 60.0 mg/kg/injection, schedule: Q01DX001 (ip), vehicle: saline): 260 % of control

CCN(C)N=Nc1ccc(C(N)=O)cc1
T/C [2]: 104 % of control
T/C [3]: 112 % of control

c1ccc2c(c1)nnn1c3cnccc3nc21
T/C (dose: 1.56 mg/kg/injection, schedule: Q01DX009 (ip), vehicle: saline with Tween-80): 110 % of control
T/C (dose: 3.12 mg/kg/injection, schedule: Q01DX009 (ip), vehicle: saline with Tween-80): 97 % of control and 111 % of control
T/C (dose: 6.25 mg/kg/injection, schedule: Q01DX009 (ip), vehicle: saline with Tween-80): 93 % of control and 107 % of control
T/C [9]: 106 % of control and 121 % of control

CC1=CCC(C(C)C)C=C1 (stereo unspecified)
T/C [2]: 92 % of control
T/C [3]: 94 % of control
T/C [4]: 94 % of control
T/C [14]: 89 % of control

c1ccc([P+](C[P+](c2ccccc2)(c2ccccc2)c2ccccc2)(c2ccccc2)c2ccccc2)cc1
T/C (dose: 0.75 mg/kg/injection, schedule: Q01DX009 (ip), vehicle: saline): 87 % of control
T/C (dose: 1.5 mg/kg/injection, schedule: Q01DX009 (ip), vehicle: saline): 93 % of control

CC(C)C[NH-].CC(C)C[NH-].O.O.[Cl][Pt+2][Cl]
T/C (dose: 10.0 mg/kg/injection, schedule: Q01DX009 (ip), vehicle: other): 151 % of control
T/C (dose: 30.0 mg/kg/injection, schedule: Q01DX009 (ip), vehicle: other): 160 % of control
T/C (dose: 40.0 mg/kg/injection, schedule: Q01DX009 (ip), vehicle: other): 214 % of control
T/C (dose: 50.0 mg/kg/injection, schedule: Q01DX009 (ip), vehicle: other): 169 % of control

O=c1n[n+]([O-])ccn1C1OC(CO)C(O)C1O (stereo unspecified)
T/C (dose: 25.0 mg/kg/injection, schedule: Q01DX009 (ip), vehicle: saline): 92 % of control and 108 % of control
T/C [11]: 102 % of control and 115 % of control
T/C [12]: 115 % of control and 120 % of control
T/C [13]: 122 % of control

Source: PubChem BioAssay AID192 (DTP/NCI, 2004)
